Columns and labels:
LolT [1] = target: T1, LolT (Penicillium expansum, UniProt A0A0A2J6G6); format: biochemical; conditions: 10 μM LolT, 4 mM diamino acid, pH 7.5 in D2O, 28° C.
Method: FIGS. 16A-16D provides reaction schematics and data of hydrogen-deuterium exchange assay of LolT with diamino acid substrate analogues. All reactions were monitored by 1H-NMR spectra and boiled enzymes were used as control. For mass data analysis, the reaction mixtures were derivatized with Fmoc-Cl.
H/D exchange assay. […] Reaction was incubated at 28° C. and monitored by NMR and LC-MS (reaction mixture was derivatized with Fmoc-Cl as described above before MS analysis). Fully deuterated products were further derivatized with Marfey's reagent (TCL) for chiral analysis. Briefly, an 80 μL reaction mixture was mixed with 20 μL acetone solution of Marfey's reagent (50 mM) and 20 μL NaHCO3 solution (1 M). The resulting mixture was incubated in a 42° C. water bath for 30 min. Next, 10 μL HCl (2M) was added to the derivatization mixture to quench the reaction. The resultant solution was analyzed on a Shimadzu LC-40 HPLC equipped with a Cosmosil, C18 AR-II analytical column. Derivatized amino acids were eluted with a linear gradient from 10% acetonitrile and to 40% acetonitrile over 20 min with a flow rate at 1 mL/min. All HPLC solvents (water and acetonitrile) were supplemented with 0.1% (v/v) formic acid.

LolD = target: T2, LolD (Epichloe uncinata, UniProt Q5MNI5); experiment: Enzymatic assay for LolD (conversion monitored by HPLC/LC-MS after Fmoc-Cl derivatization); format: biochemical, E. uncinate; conditions: phosphate buffer pH 7.5, 28° C.
T2 construct: Bacterial expression plasmids were ordered from Twist Biosciences; made in house; host or cells: E. coli BL21(DE3)
T2 sequence (Q5MNI5 1-420): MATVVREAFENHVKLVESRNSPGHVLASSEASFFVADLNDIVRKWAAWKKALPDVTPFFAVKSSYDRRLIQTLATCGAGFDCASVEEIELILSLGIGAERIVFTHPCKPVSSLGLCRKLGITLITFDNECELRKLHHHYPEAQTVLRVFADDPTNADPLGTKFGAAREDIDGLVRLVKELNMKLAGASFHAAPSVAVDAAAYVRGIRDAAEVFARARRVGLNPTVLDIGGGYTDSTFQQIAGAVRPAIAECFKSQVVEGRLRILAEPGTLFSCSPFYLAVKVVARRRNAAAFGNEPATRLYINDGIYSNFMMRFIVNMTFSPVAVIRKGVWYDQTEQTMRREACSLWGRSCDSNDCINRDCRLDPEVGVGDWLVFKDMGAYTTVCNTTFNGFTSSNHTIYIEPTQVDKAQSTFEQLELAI
Description: FIGS. 4A-4D provides schematics and data identifying LolT as a PLP-dependent Mannich cyclase. FIG. 4A provides a schematic depicting an elucidated pathway for the pyrrolizidine formation of loline. FIG. 4B provides HPLC analysis showing the reactions catalysed by LolT and LolD. All reactions were repeated for at least 3 times. Products were derivatized with Fmoc-Cl and analyzed by HPLC using a C18 column (Phenomenex Kinetex, 1.7 μm, 2.0×100 mm) with a linear elution gradient of 2-98% MeCN—H2O solvent system supplemented with 0.1% formic acid as additive. FIG. 4C provides DFT-calculated Mannich cyclization transition state for anti TS-1. FIG. 4D provides DFT-calculated Mannich cyclization transition state for syn TS-2.
FIGS. 7A-7B provides data of control experiments testing the function LolT and LolD using alternative substrates. FIG. 7A: Incubating LolD (10 μM) with 2 (1 mM) in phosphate buffer (pH 7.5) for 12 hrs at 28° C. FIG. 7B: Incubating LolT (1 μM) with decarboxylated 2 (1 mM) in phosphate buffer (pH 7.5) for 12 hrs at 28° C. All reactions were derivatized with Fmoc-Cl (50 mM) and analyzed by HPLC and LCMS. Decarboxylated 2 was prepared in situ by global deprotection of 12b, synthesis of 12b.
Enzymatic assays for LolT and LolD. […] The product was quantified based on the peak area of derivatized sample and compared with standard curve. […]

LolT [2] = target: T1, LolT; experiment: Steady-state kinetic analysis of LolT-catalyzed Mannich cyclization; format: biochemical, P. expansum; conditions: reaction forming the named product
Method: FIGS. 10A-10B provide data of steady-state kinetic study of LolT and LolD. […] The results from both Fmoc-Cl and OPA derivatization were shown for comparison.
FIG. 10B: Kinetic analysis of LolD-catalyzed nonoxidative decarboxylation. All reactions were performed in assay buffer: phosphate buffer (pH 7.5), 50 μM PLP, corresponding substrate at various concentrations. For 5-endo cyclization, LolT was added to a final concentration of 0.1 μM and the reaction was quenched after 1 min; while for 6-endo cyclization, LolT was added to a final concentration of 1 μM and the reaction was quenched after 1 min, and for 7-endo cyclization, LolT was added to a final concentration of 10 μM and the reaction was quenched after 5 min. For decarboxylation reaction, LolD was added to a final concentration of 1 μM and the reaction was quenched after 20 min. The derivatization method was described in the methods section. All assays were performed in triplicates at 28° C. and individual point was shown on the plot. Except for reaction forming 5, all data were fitted to the standard Michalis-Menton equation.
Enzymatic assays for LolT and LolD. A typical reaction mixture (˜50 μl) includes ˜1 mM amino acid substrate in the assay buffer (50 mM K2HPO4, 50 μM PLP, pH 7.5). […] The product was quantified based on the peak area of derivatized sample and compared with standard curve. […]

LolT [3] = target: T1, LolT; experiment: Two-component Mannich cyclization assay; format: biochemical, P. expansum; conditions: diamino acid plus aldehyde, KPi buffer
Method: Two-component Mannich cyclization assay. A typical reaction mixture at analytical scale (˜50 μL) includes 5 μM LolT, 5 mM diamino acid substrate, and 25 mM aldehyde substrates in 50 mM KPi buffer supplemented with 5% (v/v) DMSO. The reaction mixture was taken at different time points and derivatized with ortho-phthaldialdehyde (OPA) and 5-mercaptopentanoic acid before analysis on LC-MS. The pH value, reaction temperature, reaction time, and free PLP concentration (0.1%-10% mol) were optimized for selected reactions according to the analytic yield and diastereisomeric ratio (d.r.). Optimized reactions were scaled up to isolate the corresponding product for structural determination. To ease product isolation, the reaction mixtures were derivatized with Boc anhydride and isolated by reverse-phase chromatography. The isolated Boc-protected products were deprotected with TFA/CH2Cl2 and the isolation yields were calculated based on the Boc-protected form. To determine the enantiomeric excess (e.e.), isolated products were derivatized with Na-(5-fluoro-2,4-dinitrophenyl)-L-leucinamide and Na-(5-fluoro-2,4-dinitrophenyl)-D-leucinamide and separated on LC-MS. Briefly, 10 μL of amino acid product (10 mM in MeOH) was mixed with 10 μL of Na2CO3 (1 mM) and 10 μL of derivatizing reagent. […] The resulting mixture was analyzed by LC-MS.

T1 sequence (A0A0A2J6G6 entry or part of it): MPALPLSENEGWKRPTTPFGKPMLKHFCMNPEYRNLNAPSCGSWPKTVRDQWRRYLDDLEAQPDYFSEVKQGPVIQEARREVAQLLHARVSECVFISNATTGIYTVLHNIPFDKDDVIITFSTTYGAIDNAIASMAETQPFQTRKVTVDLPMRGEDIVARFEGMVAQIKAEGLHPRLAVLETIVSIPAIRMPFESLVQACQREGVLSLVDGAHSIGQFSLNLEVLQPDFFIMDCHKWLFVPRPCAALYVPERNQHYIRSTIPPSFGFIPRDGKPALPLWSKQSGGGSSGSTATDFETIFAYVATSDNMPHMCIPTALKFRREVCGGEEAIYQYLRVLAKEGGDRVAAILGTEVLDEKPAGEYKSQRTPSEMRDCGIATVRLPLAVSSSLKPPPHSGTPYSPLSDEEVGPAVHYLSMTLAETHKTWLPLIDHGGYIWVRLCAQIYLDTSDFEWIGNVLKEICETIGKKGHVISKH

| Compound | Cα-H H/D exchange (carbanion formation) with LolT in D2O (in words) (LolT [1]) | decrease of catalytic efficiency in comparison with 5-endo-trig cyclization to make 3 (LolT [2]) | other results |
| --- | --- | --- | --- |
| NCC[C@@H](N)C(=O)O [D-Dab] | no H/D exchange occurred | – | – |
| NCC[C@H](N)C(=O)O [L-Dab, (S)-2,4-diaminobutanoic acid] | rapidly washed out | – | – |
| N[C@@]1(C(=O)O)CCN2CCC[C@@H]21 [compound 3, (1S,7aR)-1-aminohexahydro-1H-pyrrolizine-1-carboylic acid] | – | – | conversion on incubation with LolD (in words) (LolD): quantitative conversion |
| N[C@@]1(C(=O)O)CCCN2CCC[C@@H]21 [compound 5, (8S,8aR)-8-aminooctahydroindolizine-8-carboxylic acid] | – | ~12 fold | – |
| N[C@@]1(C(=O)O)CCCCN2CCC[C@@H]21 [compound 7, (9S,9aR)-9-aminooctahydro-1H-pyrrolo[1,2-a]azepine-9-carboxylic acid] | – | ~1,000 fold | – |
| NCCCC[C@H](N)C(=O)O [lysine] | – | – | Mannich cyclization as amino acid donor with aldehydes (in words) (LolT [3]): No Mannich cyclization reaction took place |

From patent US20250027123A1, “Compositions, Systems, and Methods for Performing a Mannich Cyclization Reaction” (The Regents of the University of California, priority 2023, published 2025)
